System: 362531-283-R-J2-PDC complex spheroid viability
Assay: Anticancer human tumor 362531-283-R-J2-PDC patient-derived colon adenocarcinoma cell line growth inhibition [RAS]
Settings: for IC50: curve of first compound; for viability, T/C: stronger effect = lower value; active = viability on the fitted dose curve at most 10% of control; inactive = the rest
Procedure, shortened: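 Agents were tested in combination matrices in half-log decrements from a top concentration at or near clinical Cmax (10 microM if undetermined). Targets were multi-cell spheroids of tumour lines plus HUVEC and MSC stromal cells.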
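Note: spheroids exposed to the agents for 7 days before readout.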
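Throughout, for viability, T/C: luminescence viability as percent of DMSO vehicle control wells.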

CC(=O)OC12COC1CC(O)C1(C)C(=O)C(O)C3=C(C)C(OC(=O)C(O)C(NC(=O)OC(C)(C)C)c4ccccc4)CC(O)(C(OC(=O)c4ccccc4)C21)C3(C)C (centres undefined) + CCn1c(-c2cccnc2C(C)OC)c2c3cc(ccc31)N1CCOC(CC(NC(=O)C(C(C)C)N(C)C(=O)C3(F)CCN(C(=O)C#CC(C)(C)N(C)C)CC3)C(=O)N3CCCC(N3)C(=O)OCC(C)(C)C2)C1
229 nM: IC50 (second compound 0.3 µM)
243 nM: IC50 (second compound 0.03 µM)
234 nM: IC50 (second compound 0.000949 µM) | IC50 (second compound 0.0949 µM)
225 nM: IC50 (second compound 0.00949 µM)
235 nM: IC50 (second compound 0.003 µM)
inactive: viability, T/C (second compound 0.000949 µM, first compound 0.0316 µM) 98.1% | viability, T/C (second compound 0.000949 µM, first compound 0.1 µM) 97.4% | viability, T/C (second compound 0.000949 µM, first compound 0.316 µM) 33.3% | viability, T/C (second compound 0.000949 µM, first compound 1 µM) 19.5% | viability, T/C (second compound 0.000949 µM, first compound 3.16 µM) 23.1% | viability, T/C (second compound 0.000949 µM, first compound 10 µM) 38.4% | viability, T/C (second compound 0.003 µM, first compound 0.0316 µM) 102% | viability, T/C (second compound 0.003 µM, first compound 0.1 µM) 94.6% | viability, T/C (second compound 0.003 µM, first compound 0.316 µM) 34.7% | viability, T/C (second compound 0.003 µM, first compound 1 µM) 16.6% | viability, T/C (second compound 0.003 µM, first compound 3.16 µM) 24.5% | viability, T/C (second compound 0.003 µM, first compound 10 µM) 38.4% | viability, T/C (second compound 0.00949 µM, first compound 0.0316 µM) 101% | viability, T/C (second compound 0.00949 µM, first compound 0.1 µM) 95.4% | viability, T/C (second compound 0.00949 µM, first compound 0.316 µM) 31.1% | viability, T/C (second compound 0.00949 µM, first compound 1 µM) 20% | viability, T/C (second compound 0.00949 µM, first compound 3.16 µM) 26% | viability, T/C (second compound 0.00949 µM, first compound 10 µM) 36.1% | viability, T/C (second compound 0.03 µM, first compound 0.0316 µM) 93% | viability, T/C (second compound 0.03 µM, first compound 0.1 µM) 98% | viability, T/C (second compound 0.03 µM, first compound 0.316 µM) 36.5% | viability, T/C (second compound 0.03 µM, first compound 1 µM) 17.7% | viability, T/C (second compound 0.03 µM, first compound 3.16 µM) 29.2% | viability, T/C (second compound 0.03 µM, first compound 10 µM) 34.1% | viability, T/C (second compound 0.0949 µM, first compound 0.0316 µM) 95.2% | viability, T/C (second compound 0.0949 µM, first compound 0.1 µM) 92.7% | viability, T/C (second compound 0.0949 µM, first compound 0.316 µM) 34.8% | viability, T/C (second compound 0.0949 µM, first compound 1 µM) 19% | viability, T/C (second compound 0.0949 µM, first compound 3.16 µM) 24.2% | viability, T/C (second compound 0.0949 µM, first compound 10 µM) 31.7% | viability, T/C (second compound 0.3 µM, first compound 0.0316 µM) 105% | viability, T/C (second compound 0.3 µM, first compound 0.1 µM) 96.6% | viability, T/C (second compound 0.3 µM, first compound 0.316 µM) 31.9% | viability, T/C (second compound 0.3 µM, first compound 1 µM) 18.9% | viability, T/C (second compound 0.3 µM, first compound 3.16 µM) 22.5% | viability, T/C (second compound 0.3 µM, first compound 10 µM) 28.3%

CCc1c2c(nc3ccc(O)cc13)-c1cc3c(c(=O)n1C2)COC(=O)[C@]3(O)CC + CCn1c(-c2cccnc2C(C)OC)c2c3cc(ccc31)N1CCOC(CC(NC(=O)C(C(C)C)N(C)C(=O)C3(F)CCN(C(=O)C#CC(C)(C)N(C)C)CC3)C(=O)N3CCCC(N3)C(=O)OCC(C)(C)C2)C1
60.5 nM: IC50 (second compound 0.03 µM)
44.2 nM: IC50 (second compound 0.3 µM)
58.1 nM: IC50 (second compound 0.000949 µM)
32.9 nM: IC50 (second compound 0.003 µM)
inactive: viability, T/C (second compound 0.000949 µM, first compound 0.000949 µM) 96.5% | viability, T/C (second compound 0.000949 µM, first compound 0.003 µM) 91.6% | viability, T/C (second compound 0.000949 µM, first compound 0.00949 µM) 83% | viability, T/C (second compound 0.000949 µM, first compound 0.03 µM) 73.6% | viability, T/C (second compound 0.000949 µM, first compound 0.0949 µM) 32.9% | viability, T/C (second compound 0.000949 µM, first compound 0.3 µM) 18% | viability, T/C (second compound 0.003 µM, first compound 0.000949 µM) 112% | viability, T/C (second compound 0.003 µM, first compound 0.003 µM) 91.6% | viability, T/C (second compound 0.003 µM, first compound 0.00949 µM) 82.5% | viability, T/C (second compound 0.003 µM, first compound 0.03 µM) 45.9% | viability, T/C (second compound 0.003 µM, first compound 0.0949 µM) 34% | viability, T/C (second compound 0.003 µM, first compound 0.3 µM) 16.7% | viability, T/C (second compound 0.00949 µM, first compound 0.000949 µM) 101% | viability, T/C (second compound 0.00949 µM, first compound 0.003 µM) 99.2% | viability, T/C (second compound 0.00949 µM, first compound 0.00949 µM) 76.1% | viability, T/C (second compound 0.00949 µM, first compound 0.03 µM) 65% | viability, T/C (second compound 0.00949 µM, first compound 0.0949 µM) 35.5% | viability, T/C (second compound 0.00949 µM, first compound 0.3 µM) 17.8% | viability, T/C (second compound 0.03 µM, first compound 0.000949 µM) 103% | viability, T/C (second compound 0.03 µM, first compound 0.003 µM) 90.8% | viability, T/C (second compound 0.03 µM, first compound 0.00949 µM) 89% | viability, T/C (second compound 0.03 µM, first compound 0.03 µM) 71.8% | viability, T/C (second compound 0.03 µM, first compound 0.0949 µM) 35.8% | viability, T/C (second compound 0.03 µM, first compound 0.3 µM) 15.7% | viability, T/C (second compound 0.0949 µM, first compound 0.000949 µM) 95.1% | viability, T/C (second compound 0.0949 µM, first compound 0.003 µM) 93.1% | viability, T/C (second compound 0.0949 µM, first compound 0.00949 µM) 84.8% | viability, T/C (second compound 0.0949 µM, first compound 0.03 µM) 60.1% | viability, T/C (second compound 0.0949 µM, first compound 0.0949 µM) 40.9% | viability, T/C (second compound 0.0949 µM, first compound 0.3 µM) 16.4% | viability, T/C (second compound 0.3 µM, first compound 0.000949 µM) 90.3% | viability, T/C (second compound 0.3 µM, first compound 0.003 µM) 108% | viability, T/C (second compound 0.3 µM, first compound 0.00949 µM) 90.3% | viability, T/C (second compound 0.3 µM, first compound 0.03 µM) 57.6% | viability, T/C (second compound 0.3 µM, first compound 0.0949 µM) 32.5% | viability, T/C (second compound 0.3 µM, first compound 0.3 µM) 13.3%
51.3 nM: IC50 (second compound 0.00949 µM)
56.1 nM: IC50 (second compound 0.0949 µM)

From PubChem BioAssay AID2060909 (Molecular Pharmacology Branch, DTP, NCI, 2025)
